Source: patent US8153400B1, “Nucleic acids encoding a mutT domain-containing polypeptide” (Beth Israel Deaconess Medical Center, Inc., priority 1999, dated 2012)
“Also recorded” adds a separate entry of the source. Blank lines part the entries; values can stand above or below the compound they belong to.

Columns and labels:
[1] = molecular target: T1, TrpC7 (Homo sapiens, UniProt O94759, Q1189R); assay: Whole-cell patch-clamp of membrane currents in tetracycline-inducible HEK293 cells expressing FLAG-TrpC7; type: cell-based; details: for gating of TrpC7 / induced plasma membrane currents: 100 μM in patch pipette, currents at -80 mV; for gating of TrpC7 / induced plasma membrane currents / gating of TrpC7: after tetracycline induction
T1 construct: expressed in transfected cells; host or cells: HEK293 cells expressing the tetracycline repressor (pcDNA6/TR); construct in pcDNA4/TO
T1 sequence (O94759 3-1503 Q1189R): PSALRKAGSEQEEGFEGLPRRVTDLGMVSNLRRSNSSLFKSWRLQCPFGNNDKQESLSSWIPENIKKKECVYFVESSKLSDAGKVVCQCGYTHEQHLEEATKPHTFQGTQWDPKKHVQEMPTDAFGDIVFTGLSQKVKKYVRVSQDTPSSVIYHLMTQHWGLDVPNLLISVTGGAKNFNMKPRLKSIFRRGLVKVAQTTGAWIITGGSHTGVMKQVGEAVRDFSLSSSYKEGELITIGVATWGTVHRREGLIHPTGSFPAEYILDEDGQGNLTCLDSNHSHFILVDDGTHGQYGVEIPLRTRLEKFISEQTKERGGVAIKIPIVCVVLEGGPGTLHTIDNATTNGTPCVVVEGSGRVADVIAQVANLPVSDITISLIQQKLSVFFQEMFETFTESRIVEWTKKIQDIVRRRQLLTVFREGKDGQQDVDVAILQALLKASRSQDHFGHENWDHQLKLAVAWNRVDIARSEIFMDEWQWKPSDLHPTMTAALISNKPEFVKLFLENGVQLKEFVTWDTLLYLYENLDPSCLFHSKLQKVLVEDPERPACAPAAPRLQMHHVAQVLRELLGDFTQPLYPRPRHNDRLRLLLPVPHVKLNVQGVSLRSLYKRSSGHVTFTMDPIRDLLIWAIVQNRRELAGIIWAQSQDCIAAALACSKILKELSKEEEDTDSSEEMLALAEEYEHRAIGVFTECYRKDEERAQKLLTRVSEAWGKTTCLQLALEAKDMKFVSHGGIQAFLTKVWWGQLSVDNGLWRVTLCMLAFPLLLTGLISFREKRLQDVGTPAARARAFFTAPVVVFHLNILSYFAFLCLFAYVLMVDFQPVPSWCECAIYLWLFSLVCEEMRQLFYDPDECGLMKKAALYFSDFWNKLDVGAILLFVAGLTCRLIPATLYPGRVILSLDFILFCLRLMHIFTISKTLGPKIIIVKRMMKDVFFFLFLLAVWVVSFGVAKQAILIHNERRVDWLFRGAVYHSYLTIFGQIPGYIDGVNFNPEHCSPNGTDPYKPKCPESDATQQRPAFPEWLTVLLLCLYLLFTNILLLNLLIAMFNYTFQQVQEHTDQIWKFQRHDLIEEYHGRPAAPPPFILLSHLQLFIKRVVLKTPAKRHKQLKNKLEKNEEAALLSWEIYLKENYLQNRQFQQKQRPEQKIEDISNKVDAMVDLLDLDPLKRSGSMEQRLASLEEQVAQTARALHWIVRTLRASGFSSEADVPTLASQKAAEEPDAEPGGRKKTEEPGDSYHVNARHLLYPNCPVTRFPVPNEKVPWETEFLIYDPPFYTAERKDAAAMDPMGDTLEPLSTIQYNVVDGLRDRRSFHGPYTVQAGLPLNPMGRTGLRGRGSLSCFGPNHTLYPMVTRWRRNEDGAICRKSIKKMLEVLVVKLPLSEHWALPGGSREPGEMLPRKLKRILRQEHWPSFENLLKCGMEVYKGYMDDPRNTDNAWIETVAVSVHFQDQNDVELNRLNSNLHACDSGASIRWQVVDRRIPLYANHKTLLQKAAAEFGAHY
Protocol: Wild type and tetracycline-inducible HEK293 FLAG-TrpC7 expressing cells were cultured at 37° C./5% CO2 in DMEM supplemented with 10% FBS and 2 mM glutamine. The medium was supplemented with blasticidin (5 μg/ml; Invitrogen) and zeocin (0.4 mg/ml; Invitrogen). Cells were resuspended in media containing 1 μg/ml tetracycline (Invitrogen) 24 hours before patch-clamp experiments.
For patch-clamp experiments, coverslips were transferred to the recording chamber and kept in a standard modified Ringer's solution of the following composition (in mM): NaCl 145, KCl 2.8, CaCl2 1, MgCl2 2, glucose 10, Hepes-NaOH 10, pH 7.2. Intracellular pipette-filling solutions contained (in mM): Cs-glutamate 145, NaCl 8, MgCl2 1, Cs-BAPTA 10, pH 7.2 adjusted with CsOH. […] The agonists were dissolved in the standard intracellular solution. Ionomycin (Sigma) was added to the extracellular standard solution.
Patch-clamp experiments were performed in the tight-seal whole-cell configuration at 21-25° C. High-resolution current recordings were acquired by a computer-based patch-clamp amplifier system (EPC-9, HEKA, Lambrecht, Germany). […] Immediately following establishment of the whole-cell configuration, voltage ramps of 50 ms duration spanning the voltage range of −100 to +100 mV were delivered from a holding potential of 0 mV at a rate of 0.5 Hz over a period of 200 to 400 seconds. All voltages were corrected for a liquid junction potential of 10 mV between external and internal solutions. Currents were filtered at 2.9 kHz and digitized at 100 μs intervals. Capacitive currents and series resistance were determined and corrected before each voltage ramp using the automatic capacitance compensation of the EPC-9. For analysis, the very first ramps were digitally filtered at 2 kHz, pooled and used for leak-subtraction of all subsequent current records. The low-resolution temporal development of currents at a given potential was extracted from the leak-corrected individual ramp current records by measuring the current amplitudes at voltages of −80 mV or +80 mV.

[2] = molecular target: T2, TrpC7 NUDT9 homology region (Homo sapiens, UniProt O94759); assay: Nudix type enzyme assay (ADP-ribose hydrolysis, liberated orthophosphate), TrpC7 NUDT9 homology region; type: biochemical; details: ADP-ribose as substrate
T2 construct: an NcoI site, an artificial start codon, amino acids 1197-1503, a stop codon, and a 3′ NotI site; Met from artificial start codon (N); made in house; host or cells: E. coli BL21 (DE3), pET-24d
T2 sequence (O94759 1197-1503): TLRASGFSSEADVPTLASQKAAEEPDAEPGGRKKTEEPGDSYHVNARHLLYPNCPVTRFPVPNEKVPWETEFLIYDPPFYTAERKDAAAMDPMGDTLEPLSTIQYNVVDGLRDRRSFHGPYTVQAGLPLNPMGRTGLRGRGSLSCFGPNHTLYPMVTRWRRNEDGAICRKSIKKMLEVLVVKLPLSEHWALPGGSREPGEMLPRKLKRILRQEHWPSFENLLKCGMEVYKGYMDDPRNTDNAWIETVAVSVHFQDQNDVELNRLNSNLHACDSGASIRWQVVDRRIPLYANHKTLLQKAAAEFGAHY
Protocol: (§1) BL21 (DE3) cells containing the respective expression plasmids were grown at 37° C. in LB broth on a shaker to an A600 of about 0.6 and induced by the addition of isopropyl-β-D-thiogalactopyranoside to a concentration of 1 mM. The cells were allowed to grow for an additional 4 h, harvested, washed by suspension in isotonic saline, centrifuged in pre-weighed centrifuge tubes, and the packed cells were stored at −80° C. […] In the case of NUDT9, enzyme was extracted in the freeze-thaw fraction and ammonium sulfate was added to 35% final concentration. The precipitate was discarded after centrifugation and ammonium sulfate was added to the supernatant to a final concentration of 50%. The precipitate was collected by centrifugation, dissolved then chromatographed, then chromatographed on a gel filtration column (Sephadex G-100). […]
(§2) Enzyme Assay—Enzyme velocities were quantified by measuring the conversion of a phosphatase-insensitive substrate, ADP-ribose, to the phosphatase-sensitive products, AMP and ribose-5-phosphate. The liberated inorganic orthophosphate was measured by the procedure of Ames and Dubin (Ames, B. N., and Dubin, D. T., J. Biol. Chem. 1960, 235:769-775). […] After 30 min at 37° C., the reaction was terminated by the addition of EDTA and inorganic orthophosphate was measured.
(§3) Km and Vmax were calculated by non-linear regression analysis of Lineweaver-Burke plots.

[3] = molecular target: T3, NUDT9 (mutTCCH-1) (Homo sapiens, UniProt Q9BW91); assay: Nudix type enzyme assay, substrate screen with recombinant NUDT9; type: biochemical; details: panel of nucleoside diphosphate derivatives; products AMP and ribose-5-phosphate
T3 construct: made in house; host or cells: E. coli BL21 (DE3), pET-24d
T3 sequence (Q9BW91 47-350): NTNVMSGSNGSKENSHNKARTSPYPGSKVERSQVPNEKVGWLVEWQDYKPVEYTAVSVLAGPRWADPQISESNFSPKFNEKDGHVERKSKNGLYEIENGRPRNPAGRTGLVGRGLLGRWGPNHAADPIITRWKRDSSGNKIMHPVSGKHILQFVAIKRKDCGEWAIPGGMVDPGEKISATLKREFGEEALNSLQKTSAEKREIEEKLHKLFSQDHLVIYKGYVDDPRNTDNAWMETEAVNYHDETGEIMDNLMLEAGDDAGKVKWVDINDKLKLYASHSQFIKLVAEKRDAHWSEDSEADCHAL
Protocol: as §1, §2, §3

[4] = tested on: non-selective plasma membrane ion channel in ascidian oocytes; details: cited from earlier work
[5] = intracellular perfusion, current magnitude and latency

Compound: Nc1ncnc2c1ncn2[C@@H]1O[C@H](COP(=O)(O)OP(=O)(O)O[C@H]2O[C@H](CO)[C@@H](O)[C@H](O)[C@H]2O)[C@@H](O)[C@H]1O [ADP-glucose]
gating of TrpC7 / induced plasma membrane currents [1]: no detectable gating

Compound: Nc1ncnc2c1ncn2[C@@H]1O[C@H](COP(=O)(O)OP(=O)(O)O[C@H]2O[C@H](CO)[C@@H](O)[C@H](O)[C@@H]2O)[C@@H](O)[C@H]1O [ADP-mannose]
gating of TrpC7 / induced plasma membrane currents [1]: no detectable gating

Compound: Nc1ncnc2c1ncn2[C@@H]1O[C@H](COP(=O)(O)OP(=O)(O)OC[C@H]2OC(O)[C@H](O)[C@@H]2O)[C@@H](O)[C@H]1O (some centres unmarked) [ADP-ribose, Adenosine 5-diphospho (ADP)-ribose]
gating of TrpC7 / induced plasma membrane currents [1]: extremely large currents are induced; also recorded: large inward currents
currents induced by intracellular perfusion ([1]; 300 μM, tetracycline-induced cells, -80 mV and +80 mV): almost linear cationic currents with slight outward rectification
concentration at which TrpC7 activation begins to occur [1, 5]: 60-100 μLM
concentration at which TrpC7 activation saturates [1, 5]: around 300 μM
Kd ([1]; peak current amplitudes at -80 mV, 10 μM to 1 mM, read-out: apparent KD of dose-response curve for gating of TrpC7): 90 µM
effect on plasma membrane currents ([1]; without tetracycline induction (no FLAG-TrpC7 expression)): no detectable effect
activity relative to that observed for NUDT9 [2]: approximately 1%
Vmax (specific activity) ([2]; E. coli expressed protein): 0.1 μmol/min/mg protein
substrate specificity of recombinant NUDT9 [3]: highly specific ADP-ribose pyrophosphatase
concentration that gates the currents [4]: ≥ 10 nM

Compound: Nc1nc2c(ncn2[C@@H]2O[C@H](COP(=O)(O)OP(=O)(O)O[C@H]3O[C@H](CO)[C@@H](O)[C@H](O)[C@H]3O)[C@@H](O)[C@H]2O)c(=O)[nH]1 [GDP-glucose, guanosine 5-diphospho (GDP)-glucose]
gating of TrpC7 / induced plasma membrane currents [1]: no detectable gating

Compound: Nc1nc2c(ncn2[C@@H]2O[C@H](COP(=O)(O)OP(=O)(O)O[C@H]3O[C@H](CO)[C@@H](O)[C@H](O)[C@@H]3O)[C@@H](O)[C@H]2O)c(=O)[nH]1 [GDP-mannose]
gating of TrpC7 / induced plasma membrane currents [1]: no detectable gating

gating of TrpC7 / induced plasma membrane currents [1]: no detectable gating
Compound: N=c1c2ncn3c2ncn1[C@@H]1O[C@H](COP(=O)(O)OP(=O)(O)OC[C@H]2O[C@@H]3[C@H](O)[C@@H]2O)[C@@H](O)[C@H]1O [cyclic ADP-ribose, cyclic ADP-Ribose]

gating of TrpC7 ([1]; 20 μM in patch pipette): no detectable gating
Compound: O=P(O)(O)O[C@@H]1[C@H](O)[C@H](O)[C@@H](OP(=O)(O)O)[C@H](OP(=O)(O)O)[C@H]1O [inositol-1,4,5-trisphosphate, inositol 1,4,5-trisphosphate]

Compound: C[C@H](CCC(=O)O)C[C@H](C)C[C@H](C)C(=O)/C=C(\O)[C@H](C)C[C@H](C)C/C=C/[C@@H](C)[C@@H](O)[C@@H](C)[C@@H](O)C[C@@H]1CC[C@@](C)([C@H]2CC[C@@](C)([C@@H](C)O)O2)O1 [ionomycin, Ionomycin]
gating of TrpC7 ([1]; 10 μM, added to the extracellular solution): no detectable gating
